According to US9238656B2, “Imidazo[4,5-b]pyridine derivatives as ALK and JAK modulators for the treatment of proliferative disorders” (priority 2012, dated 2016):
Where “and” joins values, the source holds several entries; their conditions need not be identical. Equal entries are not always repeated.

Tests used:
[1] = biological target: baculovirus-expressed ALK (Homo sapiens, UniProt Q9UM73); assay: ALK kinase inhibition, TRF/ELISA; format: biochemical; conditions: read-out: ALK Potency
Method: Briefly, each 96-well plate was coated with 100 μL/well of 10 μg/mL substrate (GST-PLC-γ) in Tris-buffered saline (TBS). […] The reaction was initiated by adding enzyme (30 ng/mL ALK) and was allowed to proceed at 37° C. for 15 minutes. Detection of the phosphorylated product was performed by adding 100 μL/well of Eu-N1 labeled PT66 antibody (Perkin Elmer #AD0041). […] Data analysis was performed using ActivityBase (IDBS, Guilford, UK). IC50 values were calculated by plotting percent inhibition versus log10 of the concentration of compound and fitting to the nonlinear regression sigmoidal dose-response (variable slope) equation in XLFit (IDBS, Guilford, UK).

[2] = biological target: baculovirus-expressed JAK2 kinase (Homo sapiens, UniProt O60674); assay: biochemical; conditions: 0.2 μM ATP; read-out: JAK2 Potency
Method: Compounds were tested for their ability to inhibit the kinase activity of baculovirus-expressed JAK2 kinase using the time-resolved fluorescence (TRF) detection system. […] The plates were coated with 100 μL/well of 10 μg/mL Neutravidin (Pierce #31000, Rockford, Ill.) in TBS at 37° C. for 2 h, followed by 100 μL/well of 1 μg/mL 15-mer peptide substrate (biotinyl-amino-hexanoyl-[…]-amide, Infinity Biotech Research and Resource, Aston, Pa.) at 37° C. for 1 h. […] Enzyme (15 ng/mL JAK2) was added and the reaction was allowed to proceed at room temperature for 20 min. […] Inhibition data were analyzed using ActivityBase (IDBS, Guilford, UK). IC50 values were calculated by plotting percent inhibition versus log10 of the concentration of compound and fitting to the nonlinear regression sigmoidal dose-response (variable slope) equation in XLFit (IDBS, Guilford, UK).

Sequence of baculovirus-expressed JAK2 kinase (O60674 whole entry): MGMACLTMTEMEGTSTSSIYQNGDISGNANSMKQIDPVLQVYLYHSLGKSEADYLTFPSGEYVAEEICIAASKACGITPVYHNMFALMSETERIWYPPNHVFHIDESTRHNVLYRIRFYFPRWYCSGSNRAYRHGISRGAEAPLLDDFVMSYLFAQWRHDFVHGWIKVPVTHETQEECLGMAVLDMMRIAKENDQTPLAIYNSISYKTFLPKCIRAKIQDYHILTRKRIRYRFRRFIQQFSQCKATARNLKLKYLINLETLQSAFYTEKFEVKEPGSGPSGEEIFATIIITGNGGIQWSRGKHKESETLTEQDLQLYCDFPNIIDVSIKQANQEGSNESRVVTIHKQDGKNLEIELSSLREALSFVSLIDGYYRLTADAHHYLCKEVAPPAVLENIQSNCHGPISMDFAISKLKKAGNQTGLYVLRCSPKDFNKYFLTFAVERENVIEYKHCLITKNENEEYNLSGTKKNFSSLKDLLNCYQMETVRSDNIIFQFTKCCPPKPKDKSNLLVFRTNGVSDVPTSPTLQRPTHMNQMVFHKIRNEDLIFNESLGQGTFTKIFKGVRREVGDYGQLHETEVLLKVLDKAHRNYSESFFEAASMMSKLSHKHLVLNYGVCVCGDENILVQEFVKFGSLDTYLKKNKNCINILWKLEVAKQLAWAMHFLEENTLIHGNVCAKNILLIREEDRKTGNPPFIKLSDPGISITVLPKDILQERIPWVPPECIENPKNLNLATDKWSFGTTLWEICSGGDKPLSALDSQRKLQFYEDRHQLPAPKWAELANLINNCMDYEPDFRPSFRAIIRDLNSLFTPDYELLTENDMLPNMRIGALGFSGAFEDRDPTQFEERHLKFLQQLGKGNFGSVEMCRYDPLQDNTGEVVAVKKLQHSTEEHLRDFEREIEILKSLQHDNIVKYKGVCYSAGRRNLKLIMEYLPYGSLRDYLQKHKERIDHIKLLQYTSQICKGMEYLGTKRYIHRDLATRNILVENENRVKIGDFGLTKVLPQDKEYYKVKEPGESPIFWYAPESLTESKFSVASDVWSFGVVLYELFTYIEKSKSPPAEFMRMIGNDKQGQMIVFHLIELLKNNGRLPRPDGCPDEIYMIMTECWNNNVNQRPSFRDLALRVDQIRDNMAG
Sequence of baculovirus-expressed ALK (Q9UM73 19-1620): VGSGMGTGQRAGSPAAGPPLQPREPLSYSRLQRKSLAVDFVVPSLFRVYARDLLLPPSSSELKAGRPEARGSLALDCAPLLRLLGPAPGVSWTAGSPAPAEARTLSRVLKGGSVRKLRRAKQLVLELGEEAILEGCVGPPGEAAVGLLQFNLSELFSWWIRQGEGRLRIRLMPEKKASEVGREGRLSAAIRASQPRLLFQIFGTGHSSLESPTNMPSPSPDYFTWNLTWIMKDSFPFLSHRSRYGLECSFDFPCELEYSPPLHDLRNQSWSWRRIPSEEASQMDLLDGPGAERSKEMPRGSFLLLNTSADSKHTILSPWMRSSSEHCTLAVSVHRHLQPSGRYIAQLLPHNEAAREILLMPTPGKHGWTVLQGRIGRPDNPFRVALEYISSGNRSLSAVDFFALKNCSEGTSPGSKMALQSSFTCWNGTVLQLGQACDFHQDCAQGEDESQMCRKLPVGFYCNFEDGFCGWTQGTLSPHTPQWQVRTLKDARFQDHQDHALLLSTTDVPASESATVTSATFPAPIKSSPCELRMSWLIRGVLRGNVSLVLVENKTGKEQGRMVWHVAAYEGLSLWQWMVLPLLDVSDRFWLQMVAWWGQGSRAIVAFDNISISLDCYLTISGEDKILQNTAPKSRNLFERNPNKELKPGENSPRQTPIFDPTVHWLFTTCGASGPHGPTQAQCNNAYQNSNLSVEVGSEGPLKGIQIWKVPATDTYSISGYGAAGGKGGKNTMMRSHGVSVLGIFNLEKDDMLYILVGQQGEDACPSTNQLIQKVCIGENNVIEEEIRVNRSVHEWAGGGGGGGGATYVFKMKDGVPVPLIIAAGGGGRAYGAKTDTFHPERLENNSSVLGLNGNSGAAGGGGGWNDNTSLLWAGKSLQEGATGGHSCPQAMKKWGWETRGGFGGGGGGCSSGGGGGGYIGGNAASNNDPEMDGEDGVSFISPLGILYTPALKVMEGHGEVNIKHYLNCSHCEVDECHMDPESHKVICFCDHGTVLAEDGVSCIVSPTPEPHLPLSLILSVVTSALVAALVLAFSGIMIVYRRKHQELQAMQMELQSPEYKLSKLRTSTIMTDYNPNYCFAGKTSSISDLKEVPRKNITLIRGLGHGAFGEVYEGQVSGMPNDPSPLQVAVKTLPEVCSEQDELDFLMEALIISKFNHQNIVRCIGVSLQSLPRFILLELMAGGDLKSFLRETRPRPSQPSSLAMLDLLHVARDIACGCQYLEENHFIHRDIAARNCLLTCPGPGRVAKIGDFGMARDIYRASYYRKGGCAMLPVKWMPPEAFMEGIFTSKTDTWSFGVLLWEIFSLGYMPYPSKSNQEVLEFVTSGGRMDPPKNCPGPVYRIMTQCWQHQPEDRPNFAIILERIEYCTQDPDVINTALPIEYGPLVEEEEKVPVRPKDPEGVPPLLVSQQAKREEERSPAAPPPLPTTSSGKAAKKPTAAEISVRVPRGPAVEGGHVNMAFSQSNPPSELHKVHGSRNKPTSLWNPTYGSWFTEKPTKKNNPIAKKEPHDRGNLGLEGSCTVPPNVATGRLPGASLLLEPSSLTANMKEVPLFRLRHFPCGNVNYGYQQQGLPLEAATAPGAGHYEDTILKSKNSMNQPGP

Row | SMILES | IC50 [1] | IC50 [2]
1 | NC(=O)[C@@H]1[C@H](Nc2c(Cl)cnc3[nH]c(-c4ccc(OCC(=O)O)cc4)nc23)[C@H]2C=C[C@@H]1C2 [Compound CCXLVI, 2-(4-(7-((1R,2R,3S,4S)-3-carbamoylbicyclo[2.2.1]hept-5-en-2-ylamino)-6-chloro-3H-imidazo[4,5-b]pyridin-2-yl)phenoxy)acetic acid] | 100 to 1000 nM | < 100 nM
2 | CC(C)NC(=O)[C@@H]1[C@H](Nc2c(Cl)cnc3[nH]c(-c4sc(N5CC[C@@H](O)C5)nc4Cl)nc23)[C@H]2C=C[C@@H]1C2 [Compound CLXIX, (1S,2S,3R,4R)-3-{6-Chloro-2-[4-chloro-2-((R)-3-hydroxy-pyrrolidin-1-yl)-thiazol-5-yl]-1H-imidazo[4,5-b]pyridin-7-ylamino}-bicyclo[2.2.1]hept-5-ene-2-carboxylic acid isopropylamide] | 100 to 1000 nM | 1000 to 10000 nM
3 | CC(O)CN1CCN(C(=O)COc2cccc(-c3nc4c(N[C@H]5[C@@H](C(N)=O)[C@@H]6C=C[C@H]5C6)c(Cl)cnc4[nH]3)c2)CC1 (stereo partly drawn) [Compound CCXLI, (1S,2S,3R,4R)-3-(6-chloro-2-(3-(2-(4-(2-hydroxypropyl)piperazin-1-yl)-2-oxoethoxy)phenyl)-3H-imidazo[4,5-b]pyridin-7-ylamino)bicyclo[2.2.1]hept-5-ene-2-carboxamide] | 100 to 1000 nM | < 100 nM
4 | NC(=O)[C@@H]1[C@H](Nc2c(Br)cnc3[nH]c(-c4ccc(N5CCOCC5)c(Cl)c4)nc23)[C@H]2C=C[C@@H]1C2 [Compound CXXXV, (1S,2S,3R,4R)-3-[6-Bromo-2-(3-chloro-4-morpholin-4-yl-phenyl)-3H-imidazo[4,5-b]pyridin-7-ylamino]-bicyclo[2.2.1]hept-5-ene-2-carboxylic acid amide] | 100 to 1000 nM | < 100 nM
5 | CC(=O)N1CCC(n2cc(-c3nc4c(N[C@H]5[C@@H](C(N)=O)[C@@H]6C=C[C@H]5C6)c(Cl)cnc4[nH]3)cn2)CC1 [Compound LXI, (1S,2S,3R,4R)-3-{2-[1-(1-Acetyl-piperidin-4-yl)-1H-pyrazol-4-yl]-6-chloro-3H-imidazo[4,5-b]pyridine-7-ylamino}-bicyclo[2.2.1]hept-5-ene-2-carboxylic acid amide] | 100 to 1000 nM | < 100 nM
6 | NC(=O)[C@@H]1[C@H](Nc2c(Cl)cnc3[nH]c(-c4cccc(C(=O)NCC(=O)O)c4)nc23)[C@H]2C=C[C@@H]1C2 [Compound CCXXVII, 2-(3-(7-((1R,2R,3S,4S)-3-carbamoylbicyclo[2.2.1]hept-5-en-2-ylamino)-6-chloro-3H-imidazo[4,5-b]213yridine-2-yl)benzamido)acetic acid] | 1000 to 10000 nM | < 100 nM
7 | CC(C)NC(=O)[C@@H]1[C@H](Nc2c(Cl)cnc3[nH]c(-c4sc(N5CCCC5)nc4Cl)nc23)[C@H]2C=C[C@@H]1C2 [Compound CLXV, (1S,2S,3R,4R)-3-[6-Chloro-2-(4-chloro-2-pyrrolidin-1-yl-thiazol-5-yl)-3H-imidazo[4,5-b]pyridin-7-ylamino]-bicyclo[2.2.1]hept-5-ene-2-carboxylic acid isopropylamide] | 100 to 1000 nM | 1000 to 10000 nM
8 | COc1ccccc1Nc1nc2c(N[C@H]3[C@@H](C(N)=O)[C@@H]4C=C[C@H]3C4)c(Cl)cnc2[nH]1 [Compound LXVIII, (1S,2S,3R,4R)-3-[6-Chloro-2-(2-methoxy-phenylamino)-3H-imidazo[4,5-b]pyridine-7-ylamino]-bicyclo[2.2.1]hept-5-ene-2-carboxylic acid amide] | 100 to 1000 nM | < 100 nM
9 | CC(=O)N1CCN(Cc2ccc(-c3nc4c(N[C@H]5[C@@H](C(N)=O)[C@@H]6C=C[C@H]5C6)c(Br)cnc4[nH]3)cc2)CC1 [Compound CLVI, (1S,2S,3R,4R)-3-{2-[4-(4-Acetyl-piperazin-1-ylmethyl)-phenyl]-6-bromo-3H-imidazo[4,5-b]pyridin-7-ylamino}-bicyclo[2.2.1]hept-5-ene-2-carboxylic acid amide] | < 100 nM | < 100 nM
10 | COc1cc(OC(F)(F)F)ccc1-c1nc2c(N[C@H]3[C@@H](C(N)=O)[C@@H]4C=C[C@H]3C4)c(Cl)cnc2[nH]1 [Compound XVIII, (1S,2S,3R,4R)-3-[6-Chloro-2-(2-methoxy-4-trifluoromethoxy-phenyl)-3H-imidazo[4,5-b]pyridine-7-ylamino]-bicyclo[2.2.1]hept-5-ene-2-carboxylic acid amide] | < 100 nM | 100 to 1000 nM
11 | NC(=O)[C@@H]1[C@H](Nc2c(Cl)cnc3[nH]c(-c4ccccc4Cl)nc23)[C@H]2C=C[C@@H]1C2 [Compound CXLVIII, (1S,2S,3R,4R)-3-[6-Chloro-2-(2-chloro-phenyl)-3H-imidazo[4,5-b]pyridin-7-ylamino]-bicyclo[2.2.1]hept-5-ene-2-carboxylic acid amide] | 100 to 1000 nM | < 100 nM
12 | NC(=O)[C@@H]1[C@H](Nc2c(Cl)cnc3[nH]c(-c4cccc(O)c4)nc23)[C@H]2C=C[C@@H]1C2 [Compound CCXXXIII, (1S,2S,3R,4R)-3-(6-chloro-2-(3-hydroxyphenyl)-3H-imidazo[4,5-b]pyridin-7-ylamino)pyridin[2.2.1]hept-5-ene-2-carboxamide] | 100 to 1000 nM | < 100 nM
13 | Cc1nc(C2CCN(CC(N)=O)CC2)sc1-c1nc2c(N[C@H]3[C@@H](C(N)=O)[C@@H]4C=C[C@H]3C4)c(Cl)cnc2[nH]1 [Compound LXV, (1S,2S,3R,4R)-3-{2-[2-(1-Carbamoylmethyl-piperidin-4-yl)-4-methyljj-thiazol-5-yl]-6-chloro-3H-imidazo[4,5-b]pyridine-7-ylamino}-bicyclo[2.2.1]hept-5-ene-2-carboxylic acid amide] | < 100 nM | < 100 nM
14 | NC(=O)[C@@H]1[C@H](Nc2c(Cl)cnc3[nH]c(-c4cccc(OCCN5CCOCC5)c4)nc23)[C@H]2C=C[C@@H]1C2 [Compound CCXXXVII, (1S,2S,3R,4R)-3-(6-chloro-2-(3-(2-morpholinoethoxy)phenyl)-3H-imidazo[4,5-b]pyridine-7-ylamino)pyridin[2.2.1]hept-5-ene-2-carboxamide] | < 100 nM | < 100 nM and 100 to 1000 nM

Other lines, results leading:

Row | IC50 [1] | IC50 [2] | SMILES
15 | < 100 nM | < 100 nM | COc1cc(CN2CC[C@@H](O)C2)ccc1-c1nc2c(N[C@H]3[C@@H](C(N)=O)[C@@H]4C=C[C@H]3C4)c(Cl)cnc2[nH]1 [Compound XLVII, (1S,2S,3R,4R)-3-(6-Chloro-2-[4-((R)-3-hydroxy-pyrrolidin-1-ylmethyl)-2-methoxyphenyl]-3H-imidazo[4,5-b]pyridine-7-ylamino)-bicyclo[2.2.1]hept-5-ene-2-carboxylic acid amide]
16 | < 100 nM | 100 to 1000 nM | O=C(NC1CC1)[C@@H]1[C@H](Nc2c(Cl)cnc3[nH]c(-c4sc(N5CCCC5)nc4Cl)nc23)[C@H]2C=C[C@@H]1C2 [Compound CLXXII, (1S,2S,3R,4R)-3-[6-Chloro-2-(4-chloro-2-pyrrolidin-1-yl-thiazol-5-yl)-3H-imidazo[4,5-b]pyridin-7-ylamino]-bicyclo[2.2.1]hept-5-ene-2-carboxylic acid cyclopropylamide]
17 | < 100 nM | < 100 nM | CCNC(=O)N1CCC(n2cc(-c3nc4c(N[C@H]5[C@@H](C(N)=O)[C@@H]6C=C[C@H]5C6)c(Cl)cnc4[nH]3)cn2)CC1 [Compound LXII, 4-{4-[7-((1R,2R,3S,4S)-3-Carbamoyl-bicyclo[2.2.1]hept-5-ene-2-ylamino)-6-chloro-3H-imidazo[4,5-b]pyridine-2-yl]-pyrazol-1-yl)-piperidine-1-carboxylic acid ethylamide]
18 | < 100 nM | < 100 nM | C[C@H](O)CN1CCC(n2cc(-c3nc4c(N[C@H]5[C@@H](C(N)=O)[C@@H]6C=C[C@H]5C6)c(Cl)cnc4[nH]3)cn2)CC1 [Compound LIX, (1S,2S,3R,4R)-3-(6-Chloro-2-{1-[1((S)-2-hydroxypropyl)-piperidin-4-yl]-1H-pyrazol-4-yl}-3H-imidazo[4,5-b]pyridine-7-ylamino)-bicyclo[2.2.1]hept-5-ene-2-carboxylic acid amide]
19 | < 100 nM | 100 to 1000 nM | COc1cc(N2CCN(C)CC2)ccc1-c1nc2c(N[C@H]3[C@@H](C(=O)N(C)C)[C@@H]4C=C[C@H]3C4)c(Cl)cnc2[nH]1 [Compound CXCVII, (1S,2S,3R,4R)-3-(6-chloro-2-(2-methoxy-4-(4-methylpiperazin-1-yl)phenyl)-3H-imidazo[4,5-b]pyridin-7-ylamino)-N,N-dimethylbicyclo[2.2.1]hept-5-ene-2-carboxamide]
20 | < 100 nM | < 100 nM | Cc1nc(C2CCNCC2)sc1-c1nc2c(N[C@H]3[C@@H](C(N)=O)[C@@H]4C=C[C@H]3C4)c(Cl)cnc2[nH]1 [Compound LXIV, (1S,2S,3R,4R)-3-[6-Chloro-2-(4-methyl-2-piperidin-4-yl-thiazol-5-yl)-3H-imidazo[4,5-b]pyridine-7-ylamino]-bicyclo[2.2.1]hept-5-ene-2-carboxylic acid amide]
